In the RepoRT retention time repository (doi:10.1007/s11306-011-0298-z):

Assay: RP, Waters ACQUITY UPLC HSS T3, 100 × 2.1 mm, 1.8 µm, 30 °C, 0.3 mL/min, estimated dead time 0.73 min; A: water + 0.1% formic acid, pH 3; B: methanol + 0.1% formic acid, pH 3; gradient (min/%B) 0/0 6/0 56/100 60/100
Settings: stereoisomer not certain

Row | LC retention time | SMILES
1 | 4.98 min | CC(C)C[C@H](N)C(=O)O [L-leucine]
2 | 1.18 min | NCCCC[C@H](N)C(=O)O [L-lysine]
3 | 2 min | O=C(O)C[C@H](O)C(=O)O [L-malic acid]
4 | 2.8 min | CSCC[C@H](N)C(=O)O [L-methionine]
5 | 2.3 min | CCC[C@H](N)C(=O)O [L-norvaline]
6 | 1.1 min | NCCC[C@H](N)C(=O)O [L-ornithine]
7 | 11.5 min | N[C@@H](Cc1ccccc1)C(=O)O [L-phenylalanine]
8 | 1.59 min | O=C(O)[C@@H]1CCCN1 [L-proline]
9 | 1.38 min | N[C@@H](CCCCN[C@@H](CCC(=O)O)C(=O)O)C(=O)O [L-saccharopine]
10 | 1.22 min | N[C@@H](CO)C(=O)O [L-serine]
11 | 1.3 min | C[C@@H](O)[C@H](N)C(=O)O [L-threonine]
12 | 16 min | N[C@@H](Cc1c[nH]c2ccccc12)C(=O)O [L-tryptophan]
13 | 6.08 min | N[C@@H](Cc1ccc(O)cc1)C(=O)O [L-tyrosine]
14 | 2.19 min | CC(C)[C@H](N)C(=O)O [L-valine]
15 | 60.4 min | CCCCCCCCCCCCCCCCCCCCC(=O)OC [Methyl henicosanoate]
16 | 28.3 min | CC1OC(Oc2c(-c3cc(O)c(O)c(O)c3)oc3cc(O)cc(O)c3c2=O)C(O)C(O)C1O (configuration not stated) [Myricitrin (myricetin 3-O-rhamnoside)]
17 | 1.5 min | CC(=O)NC1C(O)CC(O)(C(=O)O)OC1C(O)C(O)CO (configuration not stated) [N-Acetyl-neuraminic acid]

Row | LC retention time | SMILES
18 | 17.4 min | CC(=O)NC(Cc1ccc(O)cc1)C(=O)O (configuration not stated) [N-acetyl tyrosine]
19 | 1.49 min | CC(=O)NC1C(O)OC(CO)C(O)C1O (configuration not stated) [N-acetyl-galactosamine]
20 | 2 min | O=C1CCC(=O)N1O [N-hydroxysuccinimide]
21 | 1.21 min | N[C@@H](COP(=O)(O)O)C(=O)O [O-phospho-L-serine]
22 | 33 min | Oc1ccc(C2Oc3cc(O)cc4c3C2c2cc(O)cc3c2C(c2cc(O)cc5c2C4C(c2ccc(O)cc2)O5)C(c2ccc(O)cc2)O3)cc1 (configuration not stated) [a-viniferin]
23 | 31.3 min | CC(C=CC1(O)C(C)=CC(=O)CC1(C)C)=CC(=O)O (configuration not stated) [abscisic acid]
24 | 8 min | CC(=O)NC(CS)C(=O)O (configuration not stated) [acetylcysteine]
25 | 2.33 min | Nc1ncnc2nc[nH]c12 [adenine*]
26 | 10.9 min | Nc1ncnc2c1ncn2C1OC(CO)C(O)C1OP(=O)(O)O (configuration not stated) [adenosine 2'-monophosphate]
27 | 15.5 min | O=C(O)CCCCC(=O)O [adipic acid]
28 | 1.38 min | OCC(O)C(O)C(O)CO (configuration not stated) [adonitol]
29 | 1.35 min | OCC1OC(O)C(O)C(O)C1O (configuration not stated) [allose]
30 | 59.2 min | Cc1c(C)c2c(c(C)c1O)CCC(C)(CCCC(C)CCCC(C)CCCC(C)C)O2 (stereo not drawn) [alpha-tocopherol]
31 | 1.43 min | O=CC(O)C(O)C(O)C(O)CO (configuration not stated) [altrose]
32 | 26.2 min | Oc1ccc(C=C2c3cc(O)cc(O)c3C(c3ccc(O)cc3)C2c2cc(O)cc(O)c2)cc1 (configuration not stated) [ampelopsin D + quadrangularin A]
33 | 29.8 min | Oc1ccc(C2Oc3cc(O)c4c(c3C2c2cc(O)cc(O)c2)C2C(c3ccc(O)cc3)c3c(O)cc5c(c3C2C4c2ccc(O)cc2)C(c2cc(O)cc(O)c2)C(c2ccc(O)cc2)O5)cc1 (configuration not stated) [ampelopsin H]
34 | 28.9 min | O=c1cc(-c2ccc(O)cc2)oc2cc(OC3OC(CO)C(O)C(O)C3O)cc(O)c12 (configuration not stated) [apigenin-7-O-glucoside]

Row | SMILES | LC retention time
35 | N#CC(OC1OC(COC2OC(CO)C(O)C(O)C2O)C(O)C(O)C1O)c1ccccc1 (configuration not stated) [amygdalin] | 19.3 min
36 | COc1ccc(C=O)cc1 [anisaldehyde] | 27.1 min
37 | Nc1ccccc1C(=O)O [anthranilic acid] | 19.1 min
